Test results taken from patent US11821027B2, “Epigenetic analysis of cell therapy and related methods” (Juno Therapeutics, Inc., priority 2017, dated 2023).

Columns and labels:
[1] = system: Anti-BCMA CAR-expressing T cells; experiment: ATAC-seq chromatin accessibility in stimulated anti-BCMA CAR T cells in the presence or absence of lenalidomide; assay type: cell-based
Protocol: (§1) Anti-BCMA CAR-expressing T cells, generated from four (4) different independent donors, were stimulated with 50 μg/mL BCMA-conjugated beads for 24 hours (24 hr+stim) or 7 days (d7+stim), or cultured without stimulation for 24 hours (24 hr), in the presence or absence of lenalidomide. The CAR-expressing cells were assessed by RNA sequencing (RNA-seq) for gene expression and assayed for transposase-accessible chromatin using sequencing (ATAC-seq) for chromatin accessibility analysis.
(§2) RNA-seq was performed on the complementary DNA (cDNA) samples prepared from the RNA isolated from the cultured anti-BCMA CAR-expressing cells. ATAC-seq was performed generally as described in Buenrostro et al., Nat Methods. (2013) 10(12): 1213-1218. […]
(§3) Principal component analysis (PCA) was performed for the RNA-seq and ATAC-seq data sets, generated from DESeq2-normalized counts. Differential expression (DE, for RNA-seq) or consensus peak accessibility (DA, for ATAC-seq) were calculated, modeling donor effects (Donors 1-4) and treatment effects (lenalidomide vs. vehicle) at 24 hours and day 7. […] Gene ontology (GO) enrichment analysis was performed and activation z-score was determined on the subset of genes differentially expressed at q≤0.1 using Ingenuity Pathway Analysis software (Qiagen, Inc.), accounting for donor effects within each treatment condition.

[2] = system: Anti-BCMA CAR-expressing T cells; experiment: RNA-seq gene expression in stimulated anti-BCMA CAR T cells in the presence or absence of lenalidomide; assay type: cell-based
Protocol: as §1, §2, §3

For `Nc1cccc2c1CN(C1CCC(=O)NC1=O)C2=O` (stereo not shown) [lenalidomide], the “chromatin accessibility peaks changed” value ([1]; 7 days of culture with BCMA-conjugated bead stimulation, lenalidomide vs. vehicle, 4 donors, cut off q≤0.1) was 2804 peaks, the “motif enrichment analysis of peaks (transcription factor binding motifs of T cell activation and signaling)” value ([1]; day 7 cultures with stimulation, HOMER, consensus peakset as background) was “enriched in peaks with increased accessibility” and the “effect on biological signaling pathways (differentially expressed genes)” value ([2]; 24 hours or 7 days with stimulation, Ingenuity Pathway Analysis) was “increased expression of genes involved in T cell activation and signaling”. For the same compound, the “total genes altered as shown by gene expression changes” value ([2]; 7 days of culture with BCMA-conjugated bead stimulation, lenalidomide vs. vehicle, 4 donors, cut off q≤0.05 and log 2 fold change≥0.5) was 583 genes.
